Assay results published in patent US9040519B2, “Fused tetracyclic pyrido [4,3-B] indole and pyrido [3,4-B] indole derivatives and methods of use” (Medivation Technologies, Inc., priority 2010, dated 2015).

Molecular target: T1, human recombinant serotonin (5-Hydroxytryptamine) 5-HT7 receptor (Homo sapiens, UniProt P34969)
T1 construct: expressed in transfected cells; host or cells: CHO
Test: Serotonin 5-HT7 radioligand binding ([3H]LSD)
Details: compound at 0.1 μM; CHO cells; read-out: Percentage inhibition of ligand binding, Serotonin 5-HT7
Method: To evaluate in radioligand binding assays the activity of compounds of the invention, human recombinant serotonin (5-Hydroxytryptamine) 5-HT7 receptor expressed in Chinese hamster ovary (CHO) cells (Roth, B. et al, J. Pharmacol. Exp. Ther. 268:1403, 1994; Shen, Y. et al, J. Biol. Chem. 268:18200, 1993) in a modified Tris-HCl buffer (50 mM Tris-HCl, pH 7.4, 10 mM MgCl2, 0.5 mM EDTA) was used. Compounds of invention were incubated with 5.5 nM [^3H] Lysergic acid diethylamide (LSD) for 2 h at 25° C. Non-specific binding was estimated in the presence of 10 μM Serotonin (5-HT). Receptor proteins were filtered and washed, the filters were then counted to determine [^3H]LSD specifically bound. Compounds were screened at 1 μM or lower, using 1% DMSO as vehicle. Biochemical assay results are presented as the percent inhibition of specific binding in Table 4.

T1 sequence (P34969 whole entry): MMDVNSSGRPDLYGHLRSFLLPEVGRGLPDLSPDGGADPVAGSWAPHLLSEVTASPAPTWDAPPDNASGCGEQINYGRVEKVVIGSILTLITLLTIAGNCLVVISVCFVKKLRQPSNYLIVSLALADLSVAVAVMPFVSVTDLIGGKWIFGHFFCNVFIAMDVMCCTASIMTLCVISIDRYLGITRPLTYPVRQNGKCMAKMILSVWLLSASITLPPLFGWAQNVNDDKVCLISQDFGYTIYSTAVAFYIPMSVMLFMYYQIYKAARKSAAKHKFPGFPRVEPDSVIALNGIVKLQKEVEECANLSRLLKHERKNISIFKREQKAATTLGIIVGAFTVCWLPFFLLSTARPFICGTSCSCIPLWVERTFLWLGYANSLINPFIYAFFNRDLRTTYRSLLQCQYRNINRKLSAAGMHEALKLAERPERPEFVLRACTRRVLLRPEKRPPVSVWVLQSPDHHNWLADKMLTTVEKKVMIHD

SMILES | inhibition at 0.1 µM [%]
Cc1ccc2c(c1)c1c3n2C(c2ccccc2)=CCC3(C)CN(C)C1 (stereo not drawn) [Compound 10, 2,3a,10-trimethyl-6-phenyl-2,3,3a,4-tetrahydro-1H-indolo[3,2,1-ij][1,6]naphthyridine] | 12
Cc1ccc2c(c1)c1c3n2CC(c2ccncc2)=CCC3(C)CN(C)C1 (stereo not drawn) [Compound 11, 2,3a,10-trimethyl-6-pyridin-4-yl-1,2,3,3a,4,7-hexahydro-2,7a-diaza-cyclohepta[jk]fluorene] | -8
Cc1ccc2c(c1)c1c3n2C(c2ccccc2)CCC3(C)CN(C)C1 (stereo not drawn) [Compound 12, 2,3a,10-trimethyl-6-phenyl-2,3,3a,4,5,6-hexahydro-1H-indolo[3,2,1-ij][1,6]naphthyridine] | -17
